Test systems include HCT-116 colon; IGROV1 ovarian; KM12 colon; MDA-MB-435; OVCAR-5 ovarian; SK-MEL-28 melanoma; U251 CNS; UACC-257 melanoma; MALME-3M melanoma; SF-539 CNS.
What all share (experiment): NCI-60 cell line screen, 48 h

The structures appear in SMILES notation.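 Where inhibition never reached the appropriate level, the endpoint shown equals the highest concentration tested. Otherwise, values were interpolated linearly from a five-concentration, 48-hour dose response in 96-well plates. GI50 marks 50% less growth. TGI is the concentration that stops growth completely.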

In the case of `Cc1nc2c(cc1C(=O)NN)c(=O)n(C)c(=O)n2C`, the TGI in the test on HCT-116 colon, in the test with IGROV1 ovarian, in the test with KM12 colon, in the test on MDA-MB-435, with OVCAR-5 ovarian and in the test with SK-MEL-28 melanoma was above 100 µM in each case. The TGI in the test on U251 CNS and in the test on UACC-257 melanoma was above 100 µM in each case.

Turning to `Cn1ccnc1CCc1ccc(F)cc1F`, the TGI with IGROV1 ovarian, with KM12 colon, in the test with MALME-3M melanoma, with MDA-MB-435, with OVCAR-5 ovarian and in the test with SF-539 CNS was above 100 µM in each case. Besides, the TGI with SK-MEL-28 melanoma and in the test with U251 CNS was above 100 µM in each case.

Regarding `O=C(NCC1Nc2ccncc2S(=O)(=O)N1)c1ccc(Br)cc1` (stereo not drawn), the TGI in the test with HCT-116 colon was above 100 µM; with IGROV1 ovarian it was above 100 µM; in the test with KM12 colon, above 100 µM; in the test with MALME-3M melanoma it was 97.5 µM; in the test with MDA-MB-435, 37.2 µM; in the test on OVCAR-5 ovarian, above 100 µM. For the same compound, the TGI with SK-MEL-28 melanoma, in the test with U251 CNS and in the test with UACC-257 melanoma was above 100 µM in each case.

`O=C1NN=C(c2ccc(Cl)cc2)CC1C1C(=O)N(c2ccccc2)N=C1c1ccccc1` (stereo not drawn): the TGI with HCT-116 colon is 44.8 µM; with IGROV1 ovarian it was above 100 µM; in the test on KM12 colon, above 100 µM; in the test with MALME-3M melanoma, above 100 µM; in the test on MDA-MB-435, 77.4 µM; with OVCAR-5 ovarian, 80.7 µM. Also, the TGI in the test on SF-539 CNS is 66.8 µM; in the test with SK-MEL-28 melanoma, above 100 µM; in the test with U251 CNS it was 82.9 µM.

As to `COc1ccc(/C=N\N2CC(=O)N3C4C=CC(CC4)N3C2=O)cc1` (stereo not drawn), the TGI in the test with HCT-116 colon, in the test with IGROV1 ovarian, in the test with KM12 colon, with MDA-MB-435, in the test on OVCAR-5 ovarian and in the test with SF-539 CNS was above 100 µM in each case. The TGI in the test on SK-MEL-28 melanoma, in the test with U251 CNS and in the test on UACC-257 melanoma was above 100 µM each time.

Turning to `Cc1cn(C2CC(O)C(CO)C2C)c(=O)[nH]c1=O` (stereo not drawn), the TGI with HCT-116 colon, in the test on IGROV1 ovarian, with KM12 colon, in the test on MALME-3M melanoma, in the test on OVCAR-5 ovarian and with SF-539 CNS was above 100 µM throughout. The TGI with SK-MEL-28 melanoma, in the test on U251 CNS and with UACC-257 melanoma was above 100 µM throughout.

As to `COc1cc(Oc2nc3ccccc3nc2C(=O)O)cc(OC)c1OC`, the TGI in the test on HCT-116 colon, in the test on IGROV1 ovarian, in the test with KM12 colon, with MALME-3M melanoma, with MDA-MB-435 and with OVCAR-5 ovarian was above 100 µM each time. Besides, the TGI in the test on SK-MEL-28 melanoma, in the test on U251 CNS and with UACC-257 melanoma was above 100 µM in each case.

Take `O=[N+]([O-])c1ccc2c(c1)nc(Cc1ccccc1)n2C[C@@H]1CCCN2CCCCC12` (stereo partly drawn): the TGI with HCT-116 colon is above 100 µM; in the test on IGROV1 ovarian, above 100 µM; with KM12 colon, 55.4 µM; in the test on MALME-3M melanoma, 29.2 µM; in the test with MDA-MB-435 it was 35.5 µM; in the test with OVCAR-5 ovarian, above 100 µM. Moreover, the TGI in the test on SK-MEL-28 melanoma is 38.3 µM; with U251 CNS it was above 100 µM; with UACC-257 melanoma it was 31.4 µM.

Take `CSC1=Nc2ccccc2-c2nc(-c3ccccc3)cc(-c3ccccc3)c2C1`: the TGI in the test with HCT-116 colon was 30.7 µM; in the test on IGROV1 ovarian it was 32.1 µM; with KM12 colon, above 100 µM; in the test with MDA-MB-435, above 100 µM; with OVCAR-5 ovarian, above 100 µM; with SF-539 CNS, above 100 µM. In addition, the TGI is above 100 µM in the test on SK-MEL-28 melanoma, 44.4 µM in the test with U251 CNS and above 100 µM in the test with UACC-257 melanoma.

Turning to `CCCC(Sc1nc(N)nc2nc[nH]c12)C(=O)O` (stereo not drawn), the TGI with HCT-116 colon, with IGROV1 ovarian, in the test on KM12 colon, in the test on MALME-3M melanoma, in the test with MDA-MB-435 and in the test with OVCAR-5 ovarian was above 100 µM each time. In addition, the TGI with SK-MEL-28 melanoma, in the test with U251 CNS and in the test with UACC-257 melanoma was above 100 µM each time.

For the compound `CCN(CC)CCCCCCCCNc1c2ccc(Cl)cc2nc2ccc(OC)cc12`, the GI50 with HCT-116 colon is 1.36 µM; in the test on IGROV1 ovarian, 3.44 µM; in the test on KM12 colon, 1.42 µM; with MDA-MB-435, 1.87 µM; with OVCAR-5 ovarian, 1.64 µM; in the test on SF-539 CNS it was 1.42 µM. The figures for the GI50 with SK-MEL-28 melanoma, in the test with U251 CNS and in the test on UACC-257 melanoma were 1.95 µM, 1.38 µM and 1.97 µM, respectively. Further, the TGI in the test with HCT-116 colon turned out to be 3.14 µM; with IGROV1 ovarian it was 20.5 µM; in the test on KM12 colon, 3.92 µM; with MDA-MB-435, 3.74 µM; in the test with OVCAR-5 ovarian, 3.99 µM; with SF-539 CNS, 2.87 µM. The TGI in the test with SK-MEL-28 melanoma was 3.63 µM; in the test on U251 CNS, 2.97 µM; with UACC-257 melanoma, 3.57 µM.

Regarding `CN(C(=O)C12C3C4(C(=O)O)C1(C(=O)N(C)C(C)(C)C)C1C2(C(=O)O)C3(C(=O)N(C)C(C)(C)C)C14C(=O)N(C)C(C)(C)C)C(C)(C)C` (stereo not drawn), the TGI in the test with HCT-116 colon, with IGROV1 ovarian, with KM12 colon, in the test on MDA-MB-435, in the test on OVCAR-5 ovarian and in the test with SF-539 CNS was above 100 µM each time. The TGI in the test with SK-MEL-28 melanoma, with U251 CNS and with UACC-257 melanoma was above 100 µM in each case.

As to `CN(C)CCCn1c(Cc2ccccc2)nc2cc(C(F)(F)F)ccc21`, the TGI in the test with HCT-116 colon was 33.2 µM; in the test with IGROV1 ovarian, above 100 µM; with KM12 colon it was 31.3 µM; with MALME-3M melanoma, 35.5 µM; in the test with MDA-MB-435, 32.4 µM; in the test on OVCAR-5 ovarian, above 100 µM. The figures for the TGI with SK-MEL-28 melanoma, in the test with U251 CNS and in the test with UACC-257 melanoma were 37.6 µM, 38.8 µM and 34.2 µM, respectively.

Take `C[C@]12CC[C@H]3[C@@H](CCC4=CC(=O)C=C[C@@]43O)[C@@H]1CCC2=O`: the TGI in the test on HCT-116 colon, in the test on IGROV1 ovarian, with KM12 colon, with MDA-MB-435, in the test with OVCAR-5 ovarian and in the test on SF-539 CNS was above 100 µM in each case. The TGI in the test with SK-MEL-28 melanoma, in the test on U251 CNS and in the test on UACC-257 melanoma was above 100 µM throughout.

For the origin of these results see PubChem BioAssay (NCI).
